# In PubChem BioAssay AID2060899 (Molecular Pharmacology Branch, DTP, NCI, 2025):
# pIC50: −log10 of the molar value.
# Tested on: 565726-208-R1-J5-PDC complex spheroids, growth inhibition
# Assay: Anticancer human tumor 565726-208-R1-J5-PDC patient-derived pancreatic adenocarcinoma cell line growth inhibition [RAS]
# Conditions: for pIC50: curve of first compound; for viability, T/C: stronger effect = lower value
# Source text: RAS pathway inhibitors in Combinations in Complex Spheroids
# A high-throughput screen of multi-cell type tumor spheroids was designed to identify active combinations of RAS pathway inhibitors and targeted small molecules. Complex spheroids include a stromal component modeled by human endothelial cells (HUVEC) and fibroblasts modeled by human mesenchymal stem cells (MSCs). The concentration ranges selected for each drug and investigational agent were based upon clinically achievable concentrations if the clinical Cmax of the agent was known.
# Compounds. The drugs and investigational agents: abemaciclib (NSC768073), cobimetinib (NSC768068), divarasib (GDC6063, NSC841802), docetaxel (NSC628503), GDC-1971 (RLY-1971, NSC841576), gemcitabine (NSC613327), inavolisib (NSC800729), ipatasertib (NSC767898), KB-0742 (NSC834161), MRTX-1133 (NSC836407), osimertinib (NSC779217), RMC-4630 (NSC839698), RMC-6236 (NSC851965), RMC-6291 (NSC852671), Ro-3306 (NSC812927), sapanisertib (NSC764658), SN-38 (NSC673596), staurosporine (NSC755774), SY5609 (NSC837396), and tovorafenib (DAY101, NSC766906), were obtained from the National Cancer Institute (NCI) Developmental Therapeutics Program Chemical Repository. The FDA-approved anticancer drug set is available from the NCI Developmental Therapeutics Program. […] The stock solutions were prepared in dimethyl sulfoxide (DMSO, Sigma-Aldrich, St. Louis, MO, cat. D2650) at 800-fold the tested concentration and stored at -70 degrees C prior to their use. All drugs and investigational agents were tested over a range starting from a high concentration at or near the clinical Cmax and decreasing in half-log increments. If the clinical Cmax for an agent had not been determined, the highest concentration tested was 10 microM.
# Cell Culture. All cells were maintained in an incubator at 37 degrees C and 5% CO2 with 95% humidity. The PDC lines were cultured according to standard operating procedures established by the NCI PDMR. All PDCs were thawed and cultured in Matrigel-coated flasks prepared with a working solution of 1X Ham's F-12 nutrient mix, without supplementation (Invitrogen, Waltham, MA, cat. 11765054), 100 U/mL penicillin-streptomycin (Invitrogen, cat. 15140122), and 2.5% Matrigel (Corning Inc., Corning, NY, cat. 354248) for the first three passages. The 362531-283-R-J2-PDC and 782815-120-R-J1-PDC lines were cultured in 6C/Colon 1B media, which includes advanced DMEM/F-12 (Thermo Fisher Scientific, cat. 12634028), 10 mM HEPES (Thermo Fisher Scientific, cat. 15630080), 1X GlutaMAX supplement (Thermo Fisher Scientific, cat. 35050061), 0.1 mg/mL primocin (InvivoGen, San Diego, CA, cat. ant-pm-2), 10% defined fetal bovine serum, heat inactivated (HyClone Laboratories Inc., Logan, UT, cat. SH30070.03HI), 50% L-WRN conditioned media (ATCC, cat. CRL-3276), 1.25 mM N-Acetyl-L-cysteine (Sigma-Aldrich, cat. A9165), 10 mM nicotinamide (Sigma-Aldrich, cat. N0636), 1X B-27 supplement (Thermo Fisher Scientific, cat. 17504044), 1X N-2 supplement (Thermo Fisher Scientific, cat. 17502048), 50 ng/mL human EGF (Thermo Fisher Scientific, cat. PHG0311), and 10 microM Y-27632 dihydrochloride (Tocris Bioscience, cat. 1254). The K12877-001-R-J1-PDC line was cultured in 6I media, which includes all 6C/Colon 1B media plus 10 ng/mL human FGF-10 (PeproTech, cat. 100-26), 1 ng/mL human FGF-2 (PeproTech, cat. 100-18B), 1 µM prostaglandin E2 (Tocris Bioscience, cat. 2296), […] hydrocortisone (Sigma-Aldrich, cat. H4001), and […] bovine insulin (Sigma-Aldrich, cat. I6634). The K86415-001-R-J1-PDC line was cultured in 6D media, which includes all 6C/Colon 1B media components minus the L-WRN conditioned media. The 485176-168-R4-J1-PDC was cultured in PANC media, which includes all 6C/Colon 1B media plus 100 ng/mL human FGF-10 (PeproTech, cat. 100-26), 500 nM SB-431542 (Selleckchem, cat. S1067), and 10 nM gastrin (Tocris Bioscience, cat. 3006). […]
# [1] = second compound 0.0316 µM, first compound 0.0316 µM
# [2] = second compound 0.0316 µM, first compound 0.1 µM
# [3] = second compound 0.0316 µM, first compound 0.316 µM
# [4] = second compound 0.0316 µM, first compound 1 µM
# [5] = second compound 0.0316 µM, first compound 3.16 µM
# [6] = second compound 0.0316 µM, first compound 10 µM
# [7] = second compound 0.1 µM, first compound 0.0316 µM
# [8] = second compound 0.1 µM, first compound 0.1 µM
# [9] = second compound 0.1 µM, first compound 0.316 µM
# [10] = second compound 0.1 µM, first compound 1 µM
# [11] = second compound 0.1 µM, first compound 3.16 µM
# [12] = second compound 0.1 µM, first compound 10 µM
# [13] = second compound 0.316 µM, first compound 0.0316 µM
# [14] = second compound 0.316 µM, first compound 0.1 µM
# [15] = second compound 0.316 µM, first compound 0.316 µM
# [16] = second compound 0.316 µM, first compound 1 µM
# [17] = second compound 0.316 µM, first compound 3.16 µM
# [18] = second compound 0.316 µM, first compound 10 µM
# [19] = second compound 1 µM, first compound 0.0316 µM
# [20] = second compound 1 µM, first compound 0.1 µM
# [21] = second compound 1 µM, first compound 0.316 µM
# [22] = second compound 1 µM, first compound 1 µM
# [23] = second compound 1 µM, first compound 3.16 µM
# [24] = second compound 1 µM, first compound 10 µM
# [25] = second compound 3.16 µM, first compound 0.0316 µM
# [26] = second compound 3.16 µM, first compound 0.1 µM
# [27] = second compound 3.16 µM, first compound 0.316 µM
# [28] = second compound 3.16 µM, first compound 1 µM
# [29] = second compound 3.16 µM, first compound 3.16 µM
# [30] = second compound 3.16 µM, first compound 10 µM
# [31] = second compound 10 µM, first compound 0.0316 µM
# [32] = second compound 10 µM, first compound 0.1 µM
# [33] = second compound 10 µM, first compound 0.316 µM
# [34] = second compound 10 µM, first compound 1 µM
# [35] = second compound 10 µM, first compound 3.16 µM
# [36] = second compound 10 µM, first compound 10 µM
# 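Also: spheroids exposed to compounds for seven days before readout.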
# 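For viability, T/C in this document: 100% = DMSO vehicle control viability.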
structure (smiles),measurement,setting,value
CC1(O)CCCC1n1c(=O)c(C(F)F)cc2cnc(NC3CCN(S(C)(=O)=O)CC3)nc21 (stereo unspecified) + C#Cc1c(F)ccc2cc(O)cc(-c3ncc4c(N5CC6CCC(C5)N6)nc(OCC56CCCN5CC(F)C6)nc4c3F)c12,pIC50,second compound 0.0316 µM,5.48
same,pIC50,second compound 0.1 µM,5.48
same,pIC50,second compound 0.316 µM,5.41
same,pIC50,second compound 1 µM,5.81
same,pIC50,second compound 3.16 µM,5.94
same,pIC50,second compound 10 µM,6.22
same,"viability, T/C",[1],82.3%
same,"viability, T/C",[2],87.4%
same,"viability, T/C",[3],76.7%
same,"viability, T/C",[4],56.2%
same,"viability, T/C",[5],62.2%
same,"viability, T/C",[6],5.34%
same,"viability, T/C",[7],93.8%
same,"viability, T/C",[8],103%
same,"viability, T/C",[9],69.9%
same,"viability, T/C",[10],65.9%
same,"viability, T/C",[11],63.7%
same,"viability, T/C",[12],4.76%
same,"viability, T/C",[13],91.6%
same,"viability, T/C",[14],95%
same,"viability, T/C",[15],75.6%
same,"viability, T/C",[16],66.2%
same,"viability, T/C",[17],69%
same,"viability, T/C",[18],5.83%
same,"viability, T/C",[19],96%
same,"viability, T/C",[20],93.9%
same,"viability, T/C",[21],59.7%
same,"viability, T/C",[22],55%
same,"viability, T/C",[23],50.9%
same,"viability, T/C",[24],5.01%
same,"viability, T/C",[25],88.4%
same,"viability, T/C",[26],81.7%
same,"viability, T/C",[27],55.6%
same,"viability, T/C",[28],50%
same,"viability, T/C",[29],46.4%
same,"viability, T/C",[30],2.99%
same,"viability, T/C",[31],78.8%
same,"viability, T/C",[32],67.1%
same,"viability, T/C",[33],53.1%
same,"viability, T/C",[34],43.9%
same,"viability, T/C",[35],32.4%
same,"viability, T/C",[36],0.3%
CCC(CC)c1cc(NC2CCC(N)C2)n2nccc2n1 (stereo unspecified) + C#Cc1c(F)ccc2cc(O)cc(-c3ncc4c(N5CC6CCC(C5)N6)nc(OCC56CCCN5CC(F)C6)nc4c3F)c12,pIC50,second compound 0.0316 µM,5.84
same,pIC50,second compound 0.1 µM,5.90
same,pIC50,second compound 0.316 µM,5.87
same,pIC50,second compound 1 µM,5.99
same,pIC50,second compound 3.16 µM,6.18
same,pIC50,second compound 10 µM,6.37
same,"viability, T/C",[1],111%
same,"viability, T/C",[2],163%
same,"viability, T/C",[3],113%
same,"viability, T/C",[4],74.5%
same,"viability, T/C",[5],1.28%
same,"viability, T/C",[6],1.5%
same,"viability, T/C",[7],132%
same,"viability, T/C",[8],138%
same,"viability, T/C",[9],96.9%
same,"viability, T/C",[10],70.2%
same,"viability, T/C",[11],1.11%
same,"viability, T/C",[12],1.87%
same,"viability, T/C",[13],133%
same,"viability, T/C",[14],135%
same,"viability, T/C",[15],103%
same,"viability, T/C",[16],73.3%
same,"viability, T/C",[17],1%
same,"viability, T/C",[18],1.94%
same,"viability, T/C",[19],141%
same,"viability, T/C",[20],123%
same,"viability, T/C",[21],98.8%
same,"viability, T/C",[22],58.1%
same,"viability, T/C",[23],0.9%
same,"viability, T/C",[24],1.4%
same,"viability, T/C",[25],110%
same,"viability, T/C",[26],106%
same,"viability, T/C",[27],67.4%
same,"viability, T/C",[28],44.9%
same,"viability, T/C",[29],0.63%
same,"viability, T/C",[30],1.4%
same,"viability, T/C",[31],92.3%
same,"viability, T/C",[32],83.5%
same,"viability, T/C",[33],51.5%
same,"viability, T/C",[34],37.1%
same,"viability, T/C",[35],0.25%
same,"viability, T/C",[36],0.31%
CCN1CCN(Cc2ccc(Nc3ncc(F)c(-c4cc(F)c5nc(C)n(C(C)C)c5c4)n3)nc2)CC1 + C#Cc1c(F)ccc2cc(O)cc(-c3ncc4c(N5CC6CCC(C5)N6)nc(OCC56CCCN5CC(F)C6)nc4c3F)c12,pIC50,second compound 0.0316 µM,< 6.00
same,pIC50,second compound 0.1 µM,< 6.00
same,pIC50,second compound 0.316 µM,< 6.00
same,pIC50,second compound 1 µM,< 6.00
same,pIC50,second compound 3.16 µM,7.03
same,pIC50,second compound 10 µM,7.21
same,"viability, T/C","second compound 0.0316 µM, first compound 0.00316 µM",83.6%
same,"viability, T/C","second compound 0.0316 µM, first compound 0.01 µM",130%
same,"viability, T/C",[1],74.6%
same,"viability, T/C",[2],79.2%
same,"viability, T/C",[3],86.8%
same,"viability, T/C",[4],89.1%
same,"viability, T/C","second compound 0.1 µM, first compound 0.00316 µM",109%
same,"viability, T/C","second compound 0.1 µM, first compound 0.01 µM",122%
same,"viability, T/C",[7],75.6%
same,"viability, T/C",[8],66.9%
same,"viability, T/C",[9],76.5%
same,"viability, T/C",[10],101%
same,"viability, T/C","second compound 0.316 µM, first compound 0.00316 µM",116%
same,"viability, T/C","second compound 0.316 µM, first compound 0.01 µM",143%
same,"viability, T/C",[13],67.8%
same,"viability, T/C",[14],64.1%
same,"viability, T/C",[15],77.5%
same,"viability, T/C",[16],82.4%
same,"viability, T/C","second compound 1 µM, first compound 0.00316 µM",127%
same,"viability, T/C","second compound 1 µM, first compound 0.01 µM",115%
same,"viability, T/C",[19],87%
same,"viability, T/C",[20],61.2%
same,"viability, T/C",[21],46.8%
same,"viability, T/C",[22],72.5%
same,"viability, T/C","second compound 3.16 µM, first compound 0.00316 µM",99.1%
same,"viability, T/C","second compound 3.16 µM, first compound 0.01 µM",105%
same,"viability, T/C",[25],57.6%
same,"viability, T/C",[26],56.6%
same,"viability, T/C",[27],46.2%
same,"viability, T/C",[28],45.6%
same,"viability, T/C","second compound 10 µM, first compound 0.00316 µM",87.7%
same,"viability, T/C","second compound 10 µM, first compound 0.01 µM",78.5%
same,"viability, T/C",[31],56.9%
same,"viability, T/C",[32],41.4%
same,"viability, T/C",[33],44.3%
same,"viability, T/C",[34],28.9%
